From EP0220873B1, “Fused bicyclic imides with psychotropic activity” (priority 1985, dated 1987) come the findings set out here.

Structures can show the parent of a compound that is named as a salt.

The test system of assay [1] is avoidance responding. As to the kind of experiment: conditioned avoidance (shelf-jump response) test. The class given is in vivo, Male CD rats. To be noted: for Active at mg/kg: i.p. The protocol:
Another test designed to determine the potential antipsychotic activity of the compounds of the invention is the conditioned avoidance (shelf-jump response) test.
This test is carried out as follows: Male CD rats (Charles River) maintained at approximately 400-450 gm body weight are used. Previously trained rats are placed in plexiglass experimental chambers divided into two sections; a main chamber (10 1/2" x 6 3/4" x 11 7/8" high) and an elevated chamber or shelf (5 7/8" x 6 7/8" x 5 3/4"). A moveable wall, controlled by a motor, determines whether the rat has access to the shelf at any time during the experiment. The experimental chamber also contains a house light and sonalert. A steel grid floor in the main chamber is wired for presentation of electric shock. Each trial consists of a fifteen-second warning tone (conditioned stimulus), continuing for an additional fifteen seconds accompanied by electric shock, (unconditioned stimulus). A response (jumping onto the exposed shelf of the upper chamber) occurring during the initial fifteen-second warning tone is considered an avoidance response, while a response occurring during shock delivery is considered an escape response. Trials are presented on a fixed interval schedule of one minute. The session consists of thirty-six trials. Animals are run twice weekly with control sessions always preceding a drug run, and with at least one day intervening. Compounds are administered i.p. or p.o. at appropriate pre-treatment times to a minimum of five rats at each dose level over a range of doses.
The following experimental parameters are recorded by computer: (1) the number of avoidance responses, (2) the number of escape responses, and (3) the number of trials in which no response occurred.
(§1) Response counts are summed over all subjects at a given dose. […] This number is expressed as a percentage of the total trials. Control performance is arbitrarily assigned a value of 100% for avoidance and the dose calculated to produce a 50% block in avoidance responding (AB₅₀) is obtained from a dose-effect regression line fitted by the method of least squares. Potential antipsychotic compounds suppress avoidance responding and increase escape responding.

Assay [2] has as its target T1, limbic D-2 dopamine receptor (Rattus norvegicus, UniProt P61169).
T1 construct: Limbic brain tissue (nucleus accumbens, septal area, olfactory tubercle) is dissected; from tissue; host or cells: rat limbic brain tissue (nucleus accumbens, septal area, olfactory tubercle) homogenate
The assay can be described thus: biochemical. The class given is binding, rats. The following applies: for inhibition at 1 µM: read-out: Limbic D-2 Binding, % inhibition at 1 µM; for Ki: Table 1, 0.3 nM 3H-spiroperidol, rat limbic brain tissue, read-out: Limbic D-2 Binding (KinM).

Assay [3] relates to avoidance responding. The assay can be described thus: conditioned avoidance (discrete trial) test. The class given is in vivo, Male CD rats. The following applies: for ED50: Rattus norvegicus. The protocol:
The antipsychotic activity of the compounds of the invention is assessed via the conditioned avoidance (discrete trial) test. This test has excellent clinical correlation for antipsychotic activity.
The test is carried out as follows: Male CD rats (Charles River) maintained at approximately 400-450 gm body weight are used. Rats trained previously are placed in plexiglass experimental chambers equipped with a response lever, house light, and sonalert. A steel grid floor is wired for presentation of electric shock. Each trial consists of a fifteen-second warning tone (conditioned stimulus), continuing for an additional fifteen seconds accompanied by electric shock, (unconditioned stimulus). The rat can terminate a trial at any point by depression of the response lever. As response during the initial fifteen-second warning tone ends the trial before shock delivery and is considered avoidance response, while a response occurring during shock delivery is an escape response. Trials are presented on a variable interval schedule of two minutes. The session consists of sixty trials. Animals are run two to three times weekly with control sessions always preceding a drug run, and with at least one day intervening, compounds are administered i.p. or p.o. at appropriate pre-treatment times to a minimum of five to six rats at each dose level over a range of doses.
as §1

The mark [4] stands for this setting: ip, standard compounds, dose producing 50% block in avoidance responding, read-out: AB50 (the source's name).

T1 sequence (P61169 whole entry): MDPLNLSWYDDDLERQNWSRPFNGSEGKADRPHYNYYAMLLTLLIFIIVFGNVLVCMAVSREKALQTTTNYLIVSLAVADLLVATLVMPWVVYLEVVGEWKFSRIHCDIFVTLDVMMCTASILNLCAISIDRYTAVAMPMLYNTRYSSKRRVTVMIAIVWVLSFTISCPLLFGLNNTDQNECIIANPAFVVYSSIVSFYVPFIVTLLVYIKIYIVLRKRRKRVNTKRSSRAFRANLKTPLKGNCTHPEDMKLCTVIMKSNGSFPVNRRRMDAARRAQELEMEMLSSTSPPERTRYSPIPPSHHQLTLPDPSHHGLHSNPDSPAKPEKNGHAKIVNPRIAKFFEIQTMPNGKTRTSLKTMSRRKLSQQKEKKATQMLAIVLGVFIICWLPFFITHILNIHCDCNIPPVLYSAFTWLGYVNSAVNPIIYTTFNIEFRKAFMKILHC

As for `O=C1C2C3C=CC(C4CCC34)C2C(=O)N1CCCCN1CCN(c2nccnc2Cl)CC1` (centres unmarked) [Example 10, 2-[4-[4-(3-Chloro-2-pyrazinyl)-1-piperazinyl]butyl] octahydro-4,7-etheno-1H-cyclobut[f]isoindole-1,3(2H)--dione, dihydrochloride, hydrate], the Active at mg/kg in assay [1] is given as 40 (i.p.) mg/kg.
As to `O=C1C2C3C=CC(C3)C2C(=O)N1CCCCN1CCN(c2nccnc2Cl)CC1` (centres unmarked) [Example 18, 2-[4-[4-(3-Chloro-2-pyrazinyl)-1-piperazinyl]butyl]-3a,4,7,7a-tetrahydro-4,7-methano-1H-isoindole-1,3-(2H)-dione, hydrochloride, 2.5 hydrate], the Active at mg/kg in assay [1] is 40 (i.p.) mg/kg. In addition, in assay [2], the inhibition at 1 µM was found to be 48%. For the same compound, the ED50 in assay [3] (po, footnote 1 = AB50 value, read-out: Active at mg/kg (AB50 value)) was determined as 40 mg/kg.
As for `Cl.O.O=C1C2C3C=CC(C4CC34)C2C(=O)N1CCCCN1CCN(c2nccnc2Cl)CC1` (centres unmarked) [Example 19, 2-[4-[4-(3-Chloro-2-pyrazinyl)-1-piperazinyl]butyl]hexahydro-4,6-ethenocycloprop[f]isoindole-1,3(2H,3aH)-dione, hydrochloride, hydrate], in assay [1], the Active at mg/kg is 40 (i.p.) mg/kg. Moreover, the Ki in assay [2] is 54 nM.
Regarding `O=C1C2C3C=CC(C4C=CC43)C2C(=O)N1CCCCN1CCN(c2cncc(Cl)n2)CC1` (centres unmarked) [Example 4, 3a,4,4a,6a,7,7a-Hexahydro-2-[4-[4-(6-chloro-2-pyrazinyl)-1-piperazinyl]butyl]-4,7-etheno-1H-cyclobut[f]isoindole-1,3(2H)-dione, dihydrochloride, sesquihydrate], in assay [1], the Active at mg/kg is reported as 40 (i.p.) mg/kg.
The same measure, in the same setting: the result for `O=C1C2C3C=CC(C4CC34)C2C(=O)N1CCCCN1CCN(c2ncccn2)CC1` (centres unmarked) [Example 2, 4,4a,5,5a,6,6a-Hexahydro-2-[4-[4-(2-pyrimidinyl)-1-piperazinyl]butyl]-4,6-ethenocycloprop[f]isoindole-1,3-(2H,3aH)-dione,dihydrochloride, hydrate] reads 40 (i.p.) mg/kg.
`O=C(CCCN1CCC(O)(c2ccc(Cl)cc2)CC1)c1ccc(F)cc1` [Haloperidol, reference compound]: in assay [3] (setting [4]), the ED50 stood at 0.18 mg/kg.
For `O=C1C2C3CCC(C4CCC43)C2C(=O)N1CCCCN1CCN(c2cncc(Cl)n2)CC1` (centres unmarked) [Example 5, 2-[4-[4-(6-Chloro-2-pyrazinyl-1-piperazinyl]butyl]octahydroo-4,7-ethano-1H-cyclobut[f]isoindole-1,3-(2H)-dione, hydrochloride, hemihydrate], the Active at mg/kg in assay [1] is listed as 40 (i.p.) mg/kg.
For the compound `Cl.O=C1C2C3CCC(C4CC43)C2C(=O)N1CCCCN1CCN(c2nccnc2Cl)CC1` (centres unmarked) [Example 26, 2-[4-[4-(3-Chloro-2-pyrazinyl)-1-piperazinyl]butyl]hexahydro-4,6-ethanocycloprop[f]isoindole-1,3(2H,3aH)-dione, hydrochloride], the Active at mg/kg in assay [1] is recorded as 40 (i.p.) mg/kg. Also, the inhibition at 1 µM in assay [2] was 75%.
Regarding `Cl.O=C1C2C3CCC(C4CC43)C2C(=O)N1CCCCN1CCN(c2cncc(Cl)n2)CC1` (centres unmarked) [Example 25, 2-[4-[4-(6-Chloro-2-pyrazinyl)-1-piperazinyl]butyl]hexahydro-4,6-ethanocycloprop[f]isoindole-1,3(2H,3aH)-dione, hydrochloride], in assay [1], the Active at mg/kg is given as 40 (i.p.) mg/kg. In addition, the inhibition at 1 µM in assay [2] stood at 49%.
As to `O=C(CCCN1CCC2(CC1)C(=O)NCN2c1ccccc1)c1ccc(F)cc1` [Spiperone, reference compound], the ED50 in assay [3] (setting [4]) was 0.13 mg/kg.
Turning to `O=C1C2C3CCCCC(CC3)C2C(=O)N1CCCCN1CCN(c2cncc(Cl)n2)CC1` (centres unmarked) [Example 14, hydrochloride, hemihydrate], the Active at mg/kg in assay [1] is given as 40 (i.p.) mg/kg. In addition, the Ki in assay [2] was found to be 440 nM.
Regarding `Cl.Cl.O=C1C2C3CCCC(CC3)C2C(=O)N1CCCCN1CCN(c2ncccn2)CC1` (centres unmarked) [Example 29, 4,5,6,7,8,8a-Hexahydro-2-[4-[4-(2-pyrimidinyl)-1-piperazinyl]butyl]-4,8-ethanocyclohepta[c]pyrrole-1,3(2H,3aH)-dione, dihydrochloride], the Active at mg/kg in assay [1] is given as 40 (i.p.) mg/kg.
For the compound `O=C1CC2(CCCC2)CC(=O)N1CCCCN1CCN(c2ncccn2)CC1` [Buspirone, 8-[4-[4-(2-pyrimidinyl)-1-piperazinyl]butyl]-8-azaspiro[4.5]decane-7,9-dione, reference compound], in assay [1] (Rattus norvegicus, ip, standard compounds, read-out: AB50 (the source's name)), the ED50 was found to be 9.94 mg/kg.
Turning to `O=C1C2C3C=CC(C3)C2C(=O)N1CCCCN1CCN(c2ccc(Cl)nn2)CC1` (centres unmarked) [Example 17, 2-[4-[4-(6-Chloro-3-pyridazinyl-1-piperazinyl]butyl]-3a,4,7,7a-tetrahydro-4,7-methano-1H-isoindole-1,3-(2H)-dione, hydrochloride, dihydrate], the Active at mg/kg in assay [1] was 40 (i.p.) mg/kg. Moreover, the inhibition at 1 µM in assay [2] was determined as 19%.
For `Cl.Cl.O.O=C1C2C3C=CC(C4C=CC43)C2C(=O)N1CCCCN1CCN(c2ccc(C(F)(F)F)cn2)CC1` (centres unmarked) [Example 28, 3a,4,4a,6a,7,7a-Hexahydro-2-[4-[4-(5-trifluoromethyl-2-pyridinyl)-1-piperazinyl]-butyl]-4,7-etheno-1H-cyclobut[f]isoindole-1,3(2H)-dione, dihydrochloride, hydrate], in assay [1], the Active at mg/kg is 40 (i.p.) mg/kg.
Same read-out and setting: the value for `O=C1C2C3C=CC(C4C=CC43)C2C(=O)N1CCCCN1CCN(c2nccnc2Cl)CC1` (centres unmarked) [Example 12, 3a,4,4a,6a,7,7a-Hexahydro-2-[4-[4-(3-chloro-2-pyrazinyl-1-piperazinyl]butyl]4,7-etheno-1H-cyclobut[f]isoindole-1,3(2H)-dione, hydrochloride, dihydrate] was 40 (i.p.) mg/kg.
As for `Cl.O.O=C1C2C3C=CC(CCCC3)C2C(=O)N1CCCCN1CCN(c2nccnc2Cl)CC1` (centres unmarked) [Example 20, 2-[4-[4-(3-Chloro-2-pyrazinyl)-1-piperazinyl]butyl]octahydro-4,9-etheno-1H-cycloocta[c]pyrrole-1,3(2H)-dione, hydrochloride, hydrate], in assay [1], the Active at mg/kg is 40 (i.p.) mg/kg. The inhibition at 1 µM in assay [2] came to 78%.
As for `CSc1ccc2c(c1)N(CCC1CCCCN1C)c1ccccc1S2` (centres unmarked) [Thioridazine, reference compound], the ED50 in assay [3] (setting [4]) worked out at 8.61 mg/kg.
Regarding `O=C1C2C3C=CC(C4CCC34)C2C(=O)N1CCCCN1CCN(c2cncc(Cl)n2)CC1` (centres unmarked) [Example 15, 2-[4-[4-(6-Chloro-2-pyrazinyl)-1-piperazinyl]butyl]-octahydro-4,7-etheno-1H-cyclobut[f]isoindol-1,3-(2H)-dione, hydrochloride], the Active at mg/kg in assay [1] is given as 40 (i.p.) mg/kg. For the same compound, in assay [2], the Ki was found to be 413 nM.
In the case of `O=C1C2C3C=CC(C4C=CC43)C2C(=O)N1CCCCN1CCN(c2ccc(Cl)nn2)CC1` (centres unmarked) [Example 11, 3a,4,4a,6a,7,7a-Hexahydro-2-[4-[4-(6-chloro-3-pyridazinyl)-1-piperazinyl]butyl]4,7-etheno-1H--cyclobut[f]isoindole-1,3(2H)-dione, hydrochloride, hydrate], the Active at mg/kg in assay [1] is on record as 40 (i.p.) mg/kg.
The same measure, in the same setting: the value for `O=C1C2C3C=CC(C4CC34)C2C(=O)N1CCCCN1CCN(c2ccc(Cl)nn2)CC1` (centres unmarked) [Example 9, 2-[4-[4-(6-Chloro-3-pyridazinyl)-1-piperazinyl]butyl]hexahydro-4,6-ethenocycloprop[f]isoindole-1,3-(2H,3H)-dione, hydrochloride] was 40 (i.p.) mg/kg.
For “2-[4-[4-(2-Pyrimidinyl)-1-piperazinyl]butyl]octahydro-4,7ethano-1H-cyclobut[f]isoindole-1,3-(2H)-dione, dihydrochloride, sesquihydrate [Example 6]”, the Active at mg/kg is given as 40 (i.p.) mg/kg in assay [1] and 40 (p.o.) mg/kg in assay [3] (p.o., active dose, no AB50).

The term inhibition denotes how much of the control response was suppressed.
